Source: US8937090B2, “Parakeratosis inhibitor, pore-shrinking agent and external composition for skin” (Shiseido Company, Ltd., priority 2005, dated 2015)

How the values were obtained:
hairless mice (HR-1) = experiment: Inhibiting effect on rough skin induced by oleic acid application (transepidermal water loss); format: in vivo, mouse; parameters: ΔTEWL value: unit not given here; details: for rough skin preventing/ameliorating effect (ΔTEWL value versus control aqueous solution): in words, summary of Table 3; for ΔTEWL value: sample 3 mass %, average of four mice, 3 days after 10 mass % oleic acid, control 12.0, increase = rough skin worse
Description: In order to investigate the inhibiting effect of β-alanine derivatives and salts thereof on rough skin induced by oleic acid application, the transepidermal water loss (TEWL value) before and after application was measured, the difference was compared with the control (control aqueous solution), and the effect was determined. […] The TEWL was determined using the TM210 TEWA Meter (Courage+Khazaka Electronic GmBH).
100 μL of 10 mass % oleic acid (solvent: ethanol) was applied to the back of hairless mice (HR-1, four mice per group). Then a sample solution (β-alanine derivatives) was applied 100 μL at a time. This procedure was continued for three days. On the following day, the TEWL value of the back was determined and the values of the four animals were averaged.

panel of 20 women = experiment: Sensory irritation tests; format: in vivo, human; details: for sensory irritation: in words, summary of Table 4; for Evaluation (sensory irritation, class of average rating): sample 3 mass %, 1 mL to cheek, rated for ten minutes
Description: 1 mL of a control aqueous solution and the sample aqueous solution prepared in Example 1 were applied using a cotton swab to the left or right cheek, respectively, of each member of a panel of 20 women, and the irritating sensation was evaluated every 30 seconds for ten minutes beginning immediately after application, whereby a final evaluation was reported. The evaluation of the irritating sensation was made based on the following four levels of rating criteria, and the average rating was calculated, whereby the average was classified by the following criteria.
3: Continuation is not possible because of extremely strong irritation, such as tingling sensation, burning sensation, stinging sensation, itching, and the like.
2: Intolerable because of strong irritation, such as tingling sensation, burning sensation, stinging sensation, itching, and the like.
1: Tolerable, but with slight irritation such as tingling sensation, burning sensation, stinging sensation, itching, and the like.
0: Not particularly irritating.
(Evaluation Criteria) • A: average rating of less than 0.2 • B: average rating of from 0.2 to less than 1.0 • C: average rating of from 1.0 to less than 2.0 • D: average rating of 2.0 or greater

[1] = tested on: cheeks of healthy human males; experiment: Human pore-shrinking effect (replica of cheek pores, three-dimensional laser scanning microscope); format: in vivo; details: for pore-shrinking effect: in words, summary of Table 2; for Replica assessment value (average of n = 5): twice a day for one month, pore size rating (1-13) after minus before application, control 0.3
Description: An experiment was conducted whereby a sample was applied twice a day for one month to the cheeks of healthy human males in groups of 5 men each. Aqueous solutions (containing 15 mass % of ethanol) of 3 mass % of the β-alanine derivative or a salt thereof were prepared mainly as the evaluation sample. The pH was regulated by hydrochloric acid or sodium hydroxide so as to be 7.0 to 7.5. When the sample solubility was low, the solution was prepared accordingly. The control was an aqueous 15% ethanol solution. The sample aqueous solution and the control aqueous solution were applied to one half of the face at a time.
A replica was collected before and after continuous application, and changes in the shape of the pores at the same site were observed using a three-dimensional laser scanning microscope. The size of the pores was visually evaluated in the 13 steps of 1 through 13 (with the pores becoming larger as the numbers became larger), the difference in the ratings before and after application (after application—before application) was calculated, and the efficacy of each sample was studied using this difference as the replica assessment value.

hairless mouse (HR-1) = experiment: Parakeratosis-inhibiting effect test (oleic acid applied to back of hairless mouse; visual rough skin evaluation and parakeratosis value); format: in vivo; details: for parakeratosis-inhibiting effect: in words, summary of Table 1; for Visual evaluation (average of four animals) / Parakeratosis value (average of four animals): sample 3 mass %; for Visual evaluation (average of four animals): rough skin score, control = 2.0, no skin roughness = 0.0, 3 days application after 10 mass % oleic acid; for Parakeratosis value (average of four animals): scale 1.0 to 3.0, higher = parakeratosis advanced, control 2.0
Description: Aqueous solutions (containing 30 mass % of ethanol) of 3 mass % of a β-alanine derivative or salt thereof were prepared mainly as the evaluation sample. The pH was regulated by hydrochloric acid or sodium hydroxide so as to be 7.0 to 7.5. When sample solubility was low, the solution was prepared accordingly.
100 μL of 10 mass % oleic acid solution (solvent: ethanol) were applied to the back of a hairless mouse (HR-1; Hoshino Laboratory Animals). Then the sample solution (β-alanine derivative, and the like) was applied 100 μL at a time. This procedure was continued for three days. […] At the same time, the stratum corneum at the back of the hairless mouse was peeled off with tape, the nuclei were stained by hematoxylin, and the degree of parakeratosis was observed and evaluated by a parakeratosis value within a range of 1.0 to 3.0 (in 0.25 increments).

| Structure (SMILES) | rough skin preventing/ameliorating effect (ΔTEWL value versus control aqueous solution) (hairless mice (HR-1)) | ΔTEWL value (hairless mice (HR-1)) | sensory irritation (panel of 20 women) | Evaluation (sensory irritation, class of average rating) (panel of 20 women) | pore-shrinking effect [1] | Replica assessment value (average of n = 5) ([1]; sample 3 mass %) | parakeratosis-inhibiting effect (hairless mouse (HR-1)) | Visual evaluation (average of four animals) (hairless mouse (HR-1)) | Parakeratosis value (average of four animals) (hairless mouse (HR-1)) | Replica assessment value (average of n = 5) ([1]; sample 1.0 mass %) |
| --- | --- | --- | --- | --- | --- | --- | --- | --- | --- | --- |
| O=C(O)CCNCc1ccccc1 [N-benzyl-β-alanine] | effect was seen | 8.9 | no problem of sensory irritation | A (average rating of less than 0.2) | effect was seen | −0.8 | reduced the parakeratosis value | 1.2 | 1.2 | – |
| Cl.NCCC(N)=O [β-alanine amide hydrochloride salt] | effect was seen | 8.9 | no problem of sensory irritation | A (average rating of less than 0.2) | effect was seen | −0.3 | reduced the parakeratosis value | 1.3 | 1.3 | – |
| O=C(O)CCNC(=O)C1CCCCC1 [N-cyclohexylcarbonyl-β-alanine] | effect was seen | 8.0 | no problem of sensory irritation | A (average rating of less than 0.2) | effect was seen | −0.6 | reduced the parakeratosis value | 1.1 | 1.2 | – |
| CNCCC(=O)O [N-methyl-β-alanine] | effect was seen | 6.8 | no problem of sensory irritation | A (average rating of less than 0.2) | effect was seen | −1.0 | reduced the parakeratosis value | 1.1 | 1.2 | – |
| O=C(O)CCN1CCCCC1 [3-(1′-piperidine)-propionate, 3-(1′-piperidine)-propionic acid] | effect was seen | 5.5 | no problem of sensory irritation | A (average rating of less than 0.2) | effect was seen | −1.2 | reduced the parakeratosis value | 1.4 | 1.4 | – |
| COc1ccccc1C(=O)NCCC(=O)O [N-(2′-methoxybenzoyl)-β-alanine] | effect was seen | 7.0 | no problem of sensory irritation | A (average rating of less than 0.2) | effect was seen | −0.9 | reduced the parakeratosis value | 1.1 | 1.1 | – |
| O=C(O)CCNC(=O)c1ccccc1 [N-benzoyl-β-alanine] | effect was seen | 4.0 | no problem of sensory irritation | A (average rating of less than 0.2) | effect was seen | – | reduced the parakeratosis value | 1.1 | 1.1 | −1.5 |
| CN(CCC(=O)O)C1CCCCC1 [N-cyclohexyl-N-methyl-β-alanine] | effect was seen | 5.5 | no problem of sensory irritation | A (average rating of less than 0.2) | effect was seen | −0.8 | reduced the parakeratosis value | 1.4 | 1.4 | – |
